This is an account of results in US20030070691A1, “Biocide formation via ozonation” (priority 2000, published 2003).

In series [1] the test system is Klebsiella pneumoniae (Gram negative). The series can be described thus: Biocidal test on dried cells on glass slides. Type of series: cell-based. As for the experimental part: (§1) 0.1 milliliters of a 3×10^6 cfu/mL solution of bacteria cells harvested from a mid-log phase culture were placed on a glass microscope slide. The solution was allowed to dry for 2 hours leaving only cells on the surface. The slides were treated by immersing them in 10 mL of either: (i) sterile water; (ii) 10% ethanol in water; (iii) 10% ozonated ethanol in water; or (iv) 1% ozonated ethanol in water for either 5 or 20 seconds. Immediately after treatment the slides were removed from solution and immersed in 3-mL of a sterile saline solution and ultrasonicated for 10 minutes to dislodge the cells from the slide. The recovered cells were diluted, plated, and incubated at 37° C. overnight and colonies were counted to determine the number of survivors per slide. Initial recovery was determined using the above procedure but the treatment step was omitted.

Series [2] relates to Enterococcus faecium (Gram positive). The series can be described thus: Biocidal test on dried cells on glass slides. Type of series: cell-based. As for the experimental part:
as §1

For series [3] the following is noted: at 20° C.; Handbook of Chemistry and Physics; cited from earlier work.
In the next series the test system is Bacillus subtilis spores. The series can be described thus: Bacillus subtilis spore carrier disinfection test. It is filed as cell-based. Particulars: 30 minutes contact.
For series [4] the following is noted: neutral aqueous solution, cited from earlier work.
Series [5] is described as follows: Dissolved ozone concentration by indigo colorimetric method. It is filed as physicochemical. The following applies: for dissolved ozone concentration: ozonated 5 minutes, 10 wt % ozone gas. As for the experimental part:
Solutions containing varying amounts of acetic acid were saturated with ozone. Solutions were prepared containing 50%, 75%, 90%, 95%, and 99% by volume acetic acid in water. In separate experiments, 100 mL of the above solutions were placed in 250 mL round bottom flasks fitted with a ground glass top. The top contained two fittings that permitted gas flow in through one fitting and gas flow out through the other. A mixture of ozone and oxygen was delivered from Lynntech's Model 124 Electrochemical Ozone generator to the solution through a stainless steel gas diffusing stone. The flow rate was approximately 1,000 mL of gas per minute, and the concentration of ozone was 10% by weight. The solutions were ozonated for 5 minutes and the concentration of dissolved ozone was determined by the indigo calorimetric method. An additional solution of 100 mL of deionized water and a solution of 100 mL of glacial acetic acid were also ozonated.
The concentration of dissolved ozone was determined by the indigo colorimetric method. An indigo stock solution was prepared by adding 500 mL of deionized water and 1 mL of phosphoric acid to a 1 L volumetric flask. 770 mg of potassium indigo trisulfonate was added to the flask, and stirring was continued until the dye was completely dissolved. The flask was filled to the mark with deionized water. A working indigo solution was prepared by adding 20 mL of indigo stock solution, 10 g of sodium dihydrogen phosphate (NaH2PO4), and 7 mL of concentrated phosphoric acid to a 1 L volumetric flask. The flask was filled to the mark with deionized water. The concentration of ozone in solution was determined by adding an aliquot of ozonated solution (typically 30 μL) to 3 mL of working indigo solution in a 1 cm path-length quartz cuvette. The cuvette was capped with a piece of Parafilm® (American National Can Company, Chicago, Ill.) and inverted a few times to mix the solutions. As a blank, the same volume the equivalent non-ozonated solution was added to 3 mL of working indigo solution in a matched cuvette and mixed. […] The absorbance at 600 nm was measured to provide the difference in absorbance between the blank and the sample. […]
where ΔA is the difference in absorbance between the sample and the blank, b is the path-length of the cuvette, Vw is the volume of working indigo solution, Vs is the volume of sample, and f is 0.42. f is based on a sensitivity factor of 20,000/cm for the change in absorbance at 600 nm per mole of ozone added per liter. […]
200 mL of 81% acetic acid by volume (in DI water) water was ozonated in a glass flask. […] At the same time a liquid sample was withdrawn from the beaker and its ozone concentration measured by the method described above. […]

Series [6] in a line: Stability of ozonated ethanol solutions over 72 hours. Type of series: physicochemical. The following applies: ethanol (99 vol. %) ozonated 4 hours at 22° C.; 72-hour period. As for the experimental part: The first step was the titration of hydrogen peroxide with ceric sulfate. A small amount of the peracetic acid solution (0.25 mL) was placed in 100 mL of ice-cold 1 N H2SO4 to which was also added three drops of ferroin indicator (Aldrich Chemical Company, Milwaukee, Wis.). The faint pink colored solution was then titrated with 0.1 M Ce(SO4)2 until the colorless endpoint was reached. Because cerium(IV) has a higher oxidation potential than hydrogen peroxide, hydrogen peroxide was oxidized to protons and molecular oxygen according the stoichiometry shown in the following reaction:
5 mL of 0.18 M KI was added to the solution and the mixture was stirred for 30 seconds. The solution was then placed in the dark for 30 minutes. After the 30-minute reaction time, the solution was yellowish brown and the color was proportional to the amount of peracetic acid originally present in the solution. The brown color was produced by oxidation of the colorless iodide anion (I^−) to the brown-colored iodine (I2) molecule by peracetic acid as shown in the following reaction: […]
Experiments were done to determine the stability of ozonated ethanol solutions over a 72-hour period. Ethanol (99 vol. %) was ozonated for 4 hours at 22° C. and the amount of AMP and peracetic acid was measured as a function of time over the next three days. […]

The mark [7] stands for this setting: 5-second contact time, Log10 Start 5.3, Table 6.
[8] abbreviates: 20-second contact time, Log10 Start 4.8, Table 5.
The mark [9] stands for this setting: 20-second contact time, Log10 Start 6.3, Table 8.
The mark [10] stands for this setting: 5-second contact time, Log10 Start 4.9, Table 4.
Setting [11] is: 20-second contact time, Log10 Start 5.4, Table 3.
The mark [12] stands for this setting: 20-second contact time, Log10 Start 7.4, Table 7.

Values joined by “and” are separate entries in the source; they are usually repeats but may differ in a detail not shown here. Equal entries are not always repeated. Where two headings read alike, the source gives them in different places.

Experimental for Bacillus subtilis spores: Preparation of carriers. In each of the following examples, the disinfection solutions were evaluated using spores of Bacillus subtilis. Spores were placed onto glass carriers formed by cutting microscope slides in half lengthways. Slides were placed in a culture tube that was capped and sterilized prior to inoculation with spores. A total of 0.1 mL of a spore suspension containing 10% bovine serum albumin by weight was placed onto a small area near one end of the slide. Approximately 20 μL (microliters) of spore suspension was added at a time for 5 times, allowing each 20μL amount to dry between additions. Heat drying was performed by briefly holding the slide over a flame. The heat-fixed culture was stored in the refrigerator until needed for up to, but no longer than, 5 days.
Disinfection of carriers. In the following examples, three vials were prepared, each containing 200 mL of the disinfectant composition to be evaluated. One spore carrier was placed into each vial. The spore carriers were held in the disinfection solutions for 30 minutes. After contacting was complete, the carriers were removed from the disinfection solutions using forceps and rinsed with sterile saline.
Spore recovery and enumeration. After rinsing, each of the slides was placed in a sterile tube containing 2 mL of saline. […] Invert plates were incubated at 37° C. and counted after 24 hours. […]

Turning to `CCO` [10 vol. % Ethanol in Water (control), Ethanol], the “Log10 Recovered” value in series [1] (setting [7]) came out at 3.3 Log10; in series [1] (setting [8]), 4.3 Log10; in series [1] (setting [9]), 6.4 Log10; in series [2] (setting [10]), 4.3 Log10; in series [2] (setting [11]), 5.2 Log10; in series [2] (setting [12]), 4.5 Log10. In addition, the “Log10 Reduction” value is recorded as 2.0 Log10 in series [1] (setting [7]); 0.5 Log10 in series [1] (setting [8]); −0.1 Log10 in series [1] (setting [9]); 0.6 Log10 in series [2] (setting [10]); 0.2 Log10 in series [2] (setting [11]); 2.9 Log10 in series [2] (setting [12]).

As to `CCCC(=O)O` [butyric acid], in series [3], the published ionization constant was 4.81.

In the case of `CC(=O)O` [non-ozonated 81% acetic acid, acetic acid], in the series with Bacillus subtilis spores (Example 11), the “log reduction in viable spores, best achieved” value is given as not above 2.87 log. The “sporicidal / disinfection activity in words” value with Bacillus subtilis spores (glass carriers, spores in 10% bovine serum albumin) is given as “relatively ineffective”.

Regarding `O=[O+][O-]` [ozone], the “Ozone Concentration (solubility)” value is 35 (ppm) in series [4] (0° C.), 21 ppm in series [4] (20° C.), 4 ppm in series [4] (40° C.) and 0 ppm in series [4] (60° C.). In series [5] (in 81% acetic acid ozonated 10 minutes), the “initial ozone concentration at the time the spore carriers were immersed” value was 125 ppm and 175 ppm. The dissolved ozone concentration result in series [5] (in DI water) is on record as “about 30 ppm”; in series [5] (in pure acetic acid), “greater than 400 ppm”. Moreover, in series [5] (in ozonated DI water, Example 11), the initial ozone concentration was not above 31 ppm.

For the molecule `CC(=O)OO` [peracetic acid], the “concentration in solution over time” value in series [6] is “constant”.

As to acetaldehyde monoperacetate [AMP], the “concentration in solution over time” value in series [6] is reported as “decreases considerably”.
